#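 Compound exposure: 48 hours, 5 concentrations, 96-well plates. At the TGI there is no net growth.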
# Key:
# Assay in all cases: inhibition of tumour cell growth, NCI panel, 48 h
# 786-0 renal = test system: 786-0 renal
# A498 renal = test system: A498 renal
# A549 NSCLC = test system: A549 NSCLC
# ACHN renal = test system: ACHN renal
# BT-549 breast = test system: BT-549 breast
# CAKI-1 renal = test system: CAKI-1 renal
# CCRF-CEM leukemia = test system: CCRF-CEM leukemia
# COLO 205 colon = test system: COLO 205 colon
# DU-145 prostate = test system: DU-145 prostate
# EKVX NSCLC = test system: EKVX NSCLC
# HCC-2998 colon = test system: HCC-2998 colon
# HCT-116 colon = test system: HCT-116 colon
# HCT-15 colon = test system: HCT-15 colon
# HOP-62 NSCLC = test system: HOP-62 NSCLC
# HOP-92 NSCLC = test system: HOP-92 NSCLC
# HT29 colon = test system: HT29 colon
# IGROV1 ovarian = test system: IGROV1 ovarian
# K-562 leukemia = test system: K-562 leukemia
# KM12 colon = test system: KM12 colon
# LOX IMVI melanoma = test system: LOX IMVI melanoma
# M14 melanoma = test system: M14 melanoma
# MCF7 breast = test system: MCF7 breast
# MDA-MB-231 breast = test system: MDA-MB-231 breast
# MDA-MB-435 = test system: MDA-MB-435
# MDA-N = test system: MDA-N
# MOLT-4 leukemia = test system: MOLT-4 leukemia
# NCI-H226 lung = test system: NCI-H226 lung
# NCI-H23 lung = test system: NCI-H23 lung
# NCI-H460 lung = test system: NCI-H460 lung
# NCI/ADR-RES ovarian = test system: NCI/ADR-RES ovarian
# OVCAR-3 ovarian = test system: OVCAR-3 ovarian
# OVCAR-4 ovarian = test system: OVCAR-4 ovarian
# OVCAR-5 ovarian = test system: OVCAR-5 ovarian
# OVCAR-8 ovarian = test system: OVCAR-8 ovarian
# PC-3 prostate = test system: PC-3 prostate
# RPMI-8226 leukemia = test system: RPMI-8226 leukemia
# RXF 393 renal = test system: RXF 393 renal
# SF-295 CNS = test system: SF-295 CNS
# SF-539 CNS = test system: SF-539 CNS
# SK-MEL-2 melanoma = test system: SK-MEL-2 melanoma
# SK-MEL-28 melanoma = test system: SK-MEL-28 melanoma
# SK-MEL-5 melanoma = test system: SK-MEL-5 melanoma
# SN12C renal = test system: SN12C renal
# SNB-19 CNS = test system: SNB-19 CNS
# SNB-75 CNS = test system: SNB-75 CNS
# SR leukemia = test system: SR leukemia
# SW-620 colon = test system: SW-620 colon
# T-47D breast = test system: T-47D breast
# U251 CNS = test system: U251 CNS
# UACC-257 melanoma = test system: UACC-257 melanoma
# UACC-62 melanoma = test system: UACC-62 melanoma
# UO-31 renal = test system: UO-31 renal
# HS 578T breast = test system: HS 578T breast
# MALME-3M melanoma = test system: MALME-3M melanoma
# SF-268 CNS = test system: SF-268 CNS
# SK-OV-3 ovarian = test system: SK-OV-3 ovarian
# TK-10 renal = test system: TK-10 renal
compound,measurement,setting,value
CC(C)c1cc(=O)[nH]c2cc(N)ccc12,TGI,786-0 renal,> 100 µM
same,TGI,A498 renal,> 100 µM
same,TGI,A549 NSCLC,> 100 µM
same,TGI,ACHN renal,> 100 µM
same,TGI,BT-549 breast,> 100 µM
same,TGI,CAKI-1 renal,> 100 µM
same,TGI,CCRF-CEM leukemia,> 100 µM
same,TGI,COLO 205 colon,> 100 µM
same,TGI,DU-145 prostate,> 100 µM
same,TGI,EKVX NSCLC,> 100 µM
same,TGI,HCC-2998 colon,> 100 µM
same,TGI,HCT-116 colon,> 100 µM
same,TGI,HCT-15 colon,> 100 µM
same,TGI,HOP-62 NSCLC,> 100 µM
same,TGI,HOP-92 NSCLC,> 100 µM
same,TGI,HT29 colon,> 100 µM
same,TGI,IGROV1 ovarian,> 100 µM
same,TGI,K-562 leukemia,> 100 µM
same,TGI,KM12 colon,> 100 µM
same,TGI,LOX IMVI melanoma,> 100 µM
same,TGI,M14 melanoma,> 100 µM
same,TGI,MCF7 breast,> 100 µM
same,TGI,MDA-MB-231 breast,> 100 µM
same,TGI,MDA-MB-435,> 100 µM
same,TGI,MDA-N,> 100 µM
same,TGI,MOLT-4 leukemia,> 100 µM
same,TGI,NCI-H226 lung,> 100 µM
same,TGI,NCI-H23 lung,> 100 µM
same,TGI,NCI-H460 lung,> 100 µM
same,TGI,NCI/ADR-RES ovarian,> 100 µM
same,TGI,OVCAR-3 ovarian,> 100 µM
same,TGI,OVCAR-4 ovarian,> 100 µM
same,TGI,OVCAR-5 ovarian,> 100 µM
same,TGI,OVCAR-8 ovarian,> 100 µM
same,TGI,PC-3 prostate,> 100 µM
same,TGI,RPMI-8226 leukemia,> 100 µM
same,TGI,RXF 393 renal,> 100 µM
same,TGI,SF-295 CNS,> 100 µM
same,TGI,SF-539 CNS,> 100 µM
same,TGI,SK-MEL-2 melanoma,> 100 µM
same,TGI,SK-MEL-28 melanoma,> 100 µM
same,TGI,SK-MEL-5 melanoma,> 100 µM
same,TGI,SN12C renal,> 100 µM
same,TGI,SNB-19 CNS,> 100 µM
same,TGI,SNB-75 CNS,> 100 µM
same,TGI,SR leukemia,> 100 µM
same,TGI,SW-620 colon,> 100 µM
same,TGI,T-47D breast,> 100 µM
same,TGI,U251 CNS,> 100 µM
same,TGI,UACC-257 melanoma,> 100 µM
same,TGI,UACC-62 melanoma,> 100 µM
same,TGI,UO-31 renal,> 100 µM
Clc1cc(N/N=C(\c2ccccc2)c2ccccn2)ncn1,TGI,A549 NSCLC,> 100 µM
same,TGI,ACHN renal,> 100 µM
same,TGI,BT-549 breast,> 100 µM
same,TGI,CAKI-1 renal,0.235 µM
same,TGI,CCRF-CEM leukemia,1.3 µM
same,TGI,DU-145 prostate,> 100 µM
same,TGI,EKVX NSCLC,> 100 µM
same,TGI,HCC-2998 colon,> 100 µM
same,TGI,HCT-116 colon,> 100 µM
same,TGI,HOP-62 NSCLC,0.665 µM
same,TGI,HOP-92 NSCLC,> 100 µM
same,TGI,HS 578T breast,> 100 µM
same,TGI,HT29 colon,> 100 µM
same,TGI,IGROV1 ovarian,89.9 µM
same,TGI,K-562 leukemia,> 100 µM
same,TGI,KM12 colon,> 100 µM
same,TGI,LOX IMVI melanoma,1.74 µM
same,TGI,M14 melanoma,> 100 µM
same,TGI,MALME-3M melanoma,3.35 µM
same,TGI,MDA-MB-231 breast,0.0669 µM
same,TGI,MDA-MB-435,> 100 µM
same,TGI,MDA-N,> 100 µM
same,TGI,MOLT-4 leukemia,3.48 µM
same,TGI,NCI-H226 lung,67.3 µM
same,TGI,NCI-H23 lung,> 100 µM
same,TGI,NCI-H460 lung,83.1 µM
same,TGI,OVCAR-3 ovarian,> 100 µM
same,TGI,OVCAR-4 ovarian,> 100 µM
same,TGI,OVCAR-5 ovarian,> 100 µM
same,TGI,PC-3 prostate,> 100 µM
same,TGI,RPMI-8226 leukemia,1.92 µM
same,TGI,RXF 393 renal,> 100 µM
same,TGI,SF-268 CNS,> 100 µM
same,TGI,SF-295 CNS,> 100 µM
same,TGI,SF-539 CNS,3.26 µM
same,TGI,SK-MEL-2 melanoma,> 100 µM
same,TGI,SK-MEL-28 melanoma,> 100 µM
same,TGI,SK-MEL-5 melanoma,4.2 µM
same,TGI,SK-OV-3 ovarian,2 µM
same,TGI,SNB-19 CNS,> 100 µM
same,TGI,SNB-75 CNS,> 100 µM
same,TGI,SR leukemia,3.08 µM
same,TGI,SW-620 colon,> 100 µM
same,TGI,T-47D breast,45.2 µM
same,TGI,TK-10 renal,> 100 µM
same,TGI,U251 CNS,> 100 µM
same,TGI,UACC-257 melanoma,4.65 µM
same,TGI,UACC-62 melanoma,2.7 µM

# Reference: PubChem BioAssay (NCI)
